The values below come from patent US12030878B2 (BRISTOL-MYERS SQUIBB COMPANY, priority 2017, dated 2024).

Type in all cases: cell-based
For experiment [1], the target named is T1, human TLR8 (Homo sapiens, UniProt Q9NR97).
T1 construct: host or cells: HEK-Blue cells
T1 sequence (Q9NR97 27-1041): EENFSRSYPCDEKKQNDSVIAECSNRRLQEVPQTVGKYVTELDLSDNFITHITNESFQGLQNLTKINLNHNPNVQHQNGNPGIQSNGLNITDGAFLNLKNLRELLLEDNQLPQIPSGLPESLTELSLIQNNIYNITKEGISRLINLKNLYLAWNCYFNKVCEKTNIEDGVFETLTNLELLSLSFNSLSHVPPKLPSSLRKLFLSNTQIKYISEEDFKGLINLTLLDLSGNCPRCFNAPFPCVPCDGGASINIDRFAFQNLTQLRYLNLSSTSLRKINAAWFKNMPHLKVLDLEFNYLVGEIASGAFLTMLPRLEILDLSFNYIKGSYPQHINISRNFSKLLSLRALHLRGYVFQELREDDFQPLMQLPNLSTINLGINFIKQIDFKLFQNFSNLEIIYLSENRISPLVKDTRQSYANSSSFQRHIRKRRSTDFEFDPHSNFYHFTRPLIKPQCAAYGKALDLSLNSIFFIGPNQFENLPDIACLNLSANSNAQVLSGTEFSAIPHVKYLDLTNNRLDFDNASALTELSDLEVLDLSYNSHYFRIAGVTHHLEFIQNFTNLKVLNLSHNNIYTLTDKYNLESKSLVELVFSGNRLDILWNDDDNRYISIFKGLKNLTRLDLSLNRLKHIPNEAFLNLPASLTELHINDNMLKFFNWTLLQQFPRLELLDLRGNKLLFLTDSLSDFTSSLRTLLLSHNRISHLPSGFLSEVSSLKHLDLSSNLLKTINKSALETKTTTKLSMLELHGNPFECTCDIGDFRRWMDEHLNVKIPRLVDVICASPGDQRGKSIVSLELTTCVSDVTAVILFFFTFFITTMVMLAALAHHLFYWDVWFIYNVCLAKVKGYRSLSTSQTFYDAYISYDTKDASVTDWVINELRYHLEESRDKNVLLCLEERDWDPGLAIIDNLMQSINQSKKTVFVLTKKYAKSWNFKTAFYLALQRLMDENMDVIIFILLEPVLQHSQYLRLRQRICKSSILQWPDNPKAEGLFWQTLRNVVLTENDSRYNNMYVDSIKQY
Description: TLR8 inhibition reporter assay (HEK-Blue SEAP). Conditions: HEK-Blue cells overexpressing human TLR8, stimulated with R848 15.9 μM, 22 hour incubation. The method, boiled down: (§1)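 HEK-Blue cells with NF-κB/AP-1-driven SEAP reporter; compounds 0.05 nM-50 μM, 30 min pre-treatment at room temperature, then agonist: gardiquimod 7.5 μM (TLR7), R848 15.9 μM (TLR8) or ODN2006 5 nM (TLR9). SEAP read after 22 h at 37 °C; percent inhibition versus agonist-plus-DMSO and reference-inhibitor wells.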

Experiment [2] has as its target T2, human TLR7 (Homo sapiens, UniProt Q9NYK1).
T2 construct: host or cells: HEK-Blue cells
T2 sequence (Q9NYK1 27-1049): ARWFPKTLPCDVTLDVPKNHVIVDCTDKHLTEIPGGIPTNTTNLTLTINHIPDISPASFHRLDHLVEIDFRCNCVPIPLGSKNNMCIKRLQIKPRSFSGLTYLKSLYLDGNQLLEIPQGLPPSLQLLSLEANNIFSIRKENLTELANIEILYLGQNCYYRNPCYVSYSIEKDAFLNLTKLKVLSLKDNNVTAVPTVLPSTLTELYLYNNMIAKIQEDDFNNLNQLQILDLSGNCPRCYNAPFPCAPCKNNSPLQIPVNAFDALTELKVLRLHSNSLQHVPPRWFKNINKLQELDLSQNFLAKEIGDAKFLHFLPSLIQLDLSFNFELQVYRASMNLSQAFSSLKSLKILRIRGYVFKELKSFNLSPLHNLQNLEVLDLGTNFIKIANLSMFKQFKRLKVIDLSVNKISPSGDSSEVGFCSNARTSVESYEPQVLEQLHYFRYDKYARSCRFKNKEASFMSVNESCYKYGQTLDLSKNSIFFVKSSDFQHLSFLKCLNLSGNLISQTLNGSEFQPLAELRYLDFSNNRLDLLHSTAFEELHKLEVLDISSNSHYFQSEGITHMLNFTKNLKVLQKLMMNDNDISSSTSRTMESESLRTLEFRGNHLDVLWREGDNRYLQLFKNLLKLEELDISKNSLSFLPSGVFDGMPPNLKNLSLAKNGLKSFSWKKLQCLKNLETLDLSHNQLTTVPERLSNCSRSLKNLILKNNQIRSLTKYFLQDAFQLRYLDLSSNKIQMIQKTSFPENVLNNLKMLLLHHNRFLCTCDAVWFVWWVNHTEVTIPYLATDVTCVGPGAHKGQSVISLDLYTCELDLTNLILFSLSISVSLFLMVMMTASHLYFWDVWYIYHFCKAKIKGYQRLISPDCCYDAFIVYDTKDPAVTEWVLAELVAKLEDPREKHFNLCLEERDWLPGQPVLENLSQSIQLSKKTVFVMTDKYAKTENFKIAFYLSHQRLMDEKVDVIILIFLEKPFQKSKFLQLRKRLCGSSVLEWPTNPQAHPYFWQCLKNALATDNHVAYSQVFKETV
Briefly: TLR7 inhibition reporter assay (HEK-Blue SEAP). Conditions: HEK-Blue cells overexpressing human TLR7, stimulated with gardiquimod 7.5 μM, 22 hour incubation. Put shortly: as §1
Background: Reporter assays use an easily measured gene product as a stand-in for the process of interest.

Experiment [3] addresses T3, human TLR9 (Homo sapiens, UniProt Q9NR96).
T3 construct: host or cells: HEK-Blue cells
T3 sequence (Q9NR96 26-1032): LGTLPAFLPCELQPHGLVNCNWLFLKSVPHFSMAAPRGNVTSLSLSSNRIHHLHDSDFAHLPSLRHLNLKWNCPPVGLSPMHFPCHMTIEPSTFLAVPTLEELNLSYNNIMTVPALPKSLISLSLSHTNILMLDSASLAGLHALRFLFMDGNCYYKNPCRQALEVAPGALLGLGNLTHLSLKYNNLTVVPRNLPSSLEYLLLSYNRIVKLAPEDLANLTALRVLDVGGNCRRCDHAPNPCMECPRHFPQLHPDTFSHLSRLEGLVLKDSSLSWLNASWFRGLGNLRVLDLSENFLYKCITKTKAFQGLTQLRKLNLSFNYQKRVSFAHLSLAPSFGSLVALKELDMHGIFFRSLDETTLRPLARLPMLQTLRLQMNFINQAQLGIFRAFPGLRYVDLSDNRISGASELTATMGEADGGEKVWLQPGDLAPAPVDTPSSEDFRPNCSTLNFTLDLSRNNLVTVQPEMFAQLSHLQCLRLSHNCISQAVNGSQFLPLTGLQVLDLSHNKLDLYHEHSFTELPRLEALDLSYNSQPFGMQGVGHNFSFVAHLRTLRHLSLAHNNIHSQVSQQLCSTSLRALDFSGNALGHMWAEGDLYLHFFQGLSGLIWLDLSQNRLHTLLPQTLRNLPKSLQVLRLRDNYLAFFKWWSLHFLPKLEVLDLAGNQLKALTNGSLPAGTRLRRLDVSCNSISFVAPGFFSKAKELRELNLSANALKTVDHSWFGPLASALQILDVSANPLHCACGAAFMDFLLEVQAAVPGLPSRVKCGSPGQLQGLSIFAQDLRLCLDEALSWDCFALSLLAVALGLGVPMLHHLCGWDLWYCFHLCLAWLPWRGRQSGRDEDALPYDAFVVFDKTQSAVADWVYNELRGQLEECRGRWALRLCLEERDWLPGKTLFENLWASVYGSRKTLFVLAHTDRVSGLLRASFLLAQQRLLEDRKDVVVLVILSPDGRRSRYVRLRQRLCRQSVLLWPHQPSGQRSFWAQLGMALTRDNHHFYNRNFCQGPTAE
Description: TLR9 inhibition reporter assay (HEK-Blue SEAP). The following applies: HEK-Blue cells overexpressing human TLR9, stimulated with ODN2006 5 nM, 22 hour incubation. The method, boiled down:
as §1

SMILES strings stand for the structures.

As for `COc1ccc(-c2[nH]c3ccc(OCC(=O)NCCN)cc3c2C(C)C)cc1OC` [Example 117, N-(2-aminoethyl)-2-((2-(3,4-dimethoxyphenyl)-3-isopropyl-1H-indol-5-yl)oxy)acetamide], the results for the concentration for half-maximal inhibition (IC50) in experiment [1], in experiment [2] and in experiment [3] were 36.1 nM, 120 nM and 1570 nM, respectively.
Taken in the same sequence, the figures for `CCc1c(-c2ccc(OC)c(OC)c2)[nH]c2ccc(OC3CCN(C4CCN(CC(C)C)CC4)CC3)cc12` [Example 118, 2-(3,4-dimethoxyphenyl)-3-ethyl-5-((1′-isobutyl-[1,4′-bipiperidin]-4-yl)oxy)-1H-indole] were 9 nM, 380 nM and 309 nM.
Regarding `COc1ccc(-c2[nH]c3ccc(OCC(=O)NC[C@H]4CCNC4)cc3c2C(C)C)cc1OC` [Example 119, (S)-2-((2-(3,4-dimethoxyphenyl)-3-isopropyl-1H-indol-5-yl)oxy)-N-(pyrrolidin-3-ylmethyl)acetamide], the values for the half-maximal inhibitory concentration (IC50) in experiment [1], in experiment [2] and in experiment [3] were 177 nM, 109 nM and 2700 nM, respectively.
Taken in the same sequence, the figures for `COc1ccc(-c2[nH]c3ccc(OCC(=O)N4CCC[C@H](N)C4)cc3c2C(C)C)cc1OC` [Example 120, (S)-1-(3-aminopiperidin-1-yl)-2-((2-(3,4-dimethoxyphenyl)-3-isopropyl-1H-indol-5-yl)oxy)ethan-1-one] were 46.9 nM, 95.5 nM and 2660 nM.
The matching figures for `COc1ccc(-c2[nH]c3ccc(OCC(=O)N(C)C4CN5CCC4CC5)cc3c2C(C)C)cc1OC` (stereo not drawn) [Example 121, 2-((2-(3,4-dimethoxyphenyl)-3-isopropyl-1H-indol-5-yl)oxy)-N-methyl-N-((1s,4s)-quinuclidin-3-yl)acetamide]: 57.7 nM, 26.8 nM and 3550 nM.
Taken in the same sequence, the figures for `COc1ccc(-c2[nH]c3ccc(OCC(=O)N4CCCC(CCN)C4)cc3c2C(C)C)cc1OC` (stereo not drawn) [Example 122, 1-(3-(2-aminoethyl)piperidin-1-yl)-2-((2-(3,4-dimethoxyphenyl)-3-isopropyl-1H-indol-5-yl)oxy)ethan-1-one] were 113 nM, 328 nM and 1010 nM.
With `COc1ccc(-c2[nH]c3ccc(OCC(=O)N4CCC[C@]5(CCCC[C@@H]5N)C4)cc3c2C(C)C)cc1OC` [Example 123, 1-((6R,7S)-7-amino-2-azaspiro[5.5]undecan-2-yl)-2-((2-(3,4-dimethoxyphenyl)-3-isopropyl-1H-indol-5-yl)oxy)ethan-1-one], the IC50 in experiment [1] came out at 227 nM; in experiment [2], 164 nM; in experiment [3], 2310 nM.
The matching figures for `COc1ccc(-c2[nH]c3ccc(OCC(=O)NC4CC[C@H]5CC[C@@H]4N5C)cc3c2C(C)C)cc1OC` (stereo partly drawn) [Example 124, 2-((2-(3,4-dimethoxyphenyl)-3-isopropyl-1H-indol-5-yl)oxy)-N-((5S)-8-methyl-8-azabicyclo[3.2.1]octan-2-yl)acetamide]: 51.2 nM, 227 nM and 4030 nM.
Turning to `COc1ccc(-c2[nH]c3ccc(OCC(=O)NC4CN5CCC4CC5)cc3c2C(C)C)cc1OC` (stereo not drawn) [Example 125, 2-((2-(3,4-dimethoxyphenyl)-3-isopropyl-1H-indol-5-yl)oxy)-N-((1s,4s)-quinuclidin-3-yl)acetamide], the 50% inhibitory concentration (IC50) in experiment [1] was 44.4 nM; in experiment [2] it was 19 nM; in experiment [3], 6330 nM.
The matching figures for `COc1ccc(-c2[nH]c3ccc(OCC(=O)NCC4CCCCN4)cc3c2C(C)C)cc1OC` (stereo not drawn) [Example 126, 2-((2-(3,4-dimethoxyphenyl)-3-isopropyl-1H-indol-5-yl)oxy)-N-(piperidin-2-ylmethyl)acetamide]: 12.8 nM, 111 nM and 1900 nM.
The matching figures for `COc1ccc(-c2[nH]c3ccc(OCC(=O)N(C)C4CCCNC4)cc3c2C(C)C)cc1OC` (stereo not drawn) [Example 127, 2-((2-(3,4-dimethoxyphenyl)-3-isopropyl-1H-indol-5-yl)oxy)-N-methyl-N-(piperidin-3-yl)acetamide]: 15.3 nM, 35.2 nM and 858 nM.
With `COc1ccc(-c2[nH]c3ccc(OCC(=O)NC4CCCC(N)C4)cc3c2C(C)C)cc1OC` (stereo not drawn) [Example 128, N-(3-aminocyclohexyl)-2-((2-(3,4-dimethoxyphenyl)-3-isopropyl-1H-indol-5-yl)oxy) acetamide], the 50% inhibitory concentration (IC50) in experiment [1] stood at 54.2 nM; in experiment [2], 62.1 nM; in experiment [3] it was 576 nM.
Taken in the same sequence, the figures for `COc1ccc(-c2[nH]c3ccc(OCC(=O)N4CCNCC4)cc3c2C(C)C)cc1OC` [Example 129, 2-((2-(3,4-dimethoxyphenyl)-3-isopropyl-1H-indol-5-yl)oxy)-1-(piperazin-1-yl)ethan-1-one] were 45.1 nM, 57.9 nM and 2610 nM.

By IC50 is commonly meant the concentration at which inhibition is half-maximal. The low end stands for higher potency, the high end for lower potency.
